Patent US4415495A, “5,6;8,9-Tetrahydro-7H-dibenz(d,f)azonines” (Godecke Aktiengesellschaft, priority 1981, dated 1983)

Assays:
[1] = tested on: Rats with calcium chloride induced arrhythmias; experiment: Calcium chloride induced arrhythmias in narcotised rats (prophylactic i.v. administration); type: in vivo; conditions: control 10.9 min.
Description: By means of the intravenous infusion of a calcium chloride solution, […] induced in narcotised rats which, after termination of the infusion, continue for a certain period of time (modification of the method described by Malinow et al., Arch. Int. Pharmacodyn, 102, 266/1955). This arrhythmic phase is shortened by the prophylactic administration of antiarrhythmic drugs. […] The results of the experiments with calcium chloride induced arrhythmias on rats are summarized in the following Table I. The average period of arrhythmia is calculated from experiments with at least 10 animals.

[2] = in vivo; conditions: mouse, po
Procedure: The compounds according to the present invention are administered intragastrally to male mice (NMRI) with a body weight of from 20 to 25 g. Each dosage group consists of 4 animals. The LD50 values are determined after having observed the animals for 7 days.

[3] = tested on: guinea pig left ventricle; experiment: Refractory time of electrically stimulated guinea pig left ventricles (organ bath)
Procedure: The left ventricles of guinea pig hearts are electrically stimulated in an organ bath, the amplitude of contraction being recorded. By means of a second stimulus, the time is determined below which the heart muscle no longer reacts with a separately resolvable contraction. This time is defined as the refractory time.
The following Table II contains information concerning the maximum tested compound concentrations, as well as the average prolongation of the refractory time measured at this concentration in comparison with the initial value of, in each case, at least 6 experiments.

[4] = tested on: rabbit eye; experiment: Local anesthetic action on the rabbit eye (corneal reflex); type: in vivo, rabbits; conditions: for Period of Action: observation discontinued after 60 minutes
Procedure: The corneal reflex is induced in rabbits using a horse hair which bends with a pressure of about 250 mg (modification of the method described by M. von Frey, Beitrage zur Physiologie des Schmerzsinns, Vehr. d. Kgl. Sachs, Ges. d. Wiss. zu Leipzig, Math.-phys. Kl., 46, 185/1894; Untersuchungen uber die Sinnesfunktionen der menschlichen Haut, Leipzig, 1896). After instillation of local anesthetics into the conjunctival sac of the eye, the number of impacts with the horse hair which result in closure of the eyelid is increased. At intervals of 4 minutes, in each case a maximum of 100 successive impacts are carried out and such an action is taken as being 100%. The period of investigation is at most 60 minutes. The action of the compounds according to the present invention is compared with that of tetracaine and procainamide.
The following Table VII contains the results of the experiments on the rabbit eye. There are also given, in addition to the concentrations of the test solutions which were instilled into the conjunctival sac, the actions of the compounds in % (see description of the method), as well as their period of action. In each case, the observations were discontinued after 60 minutes.

[5] = Oryctolagus cuniculus, topical, concentration 1.0 %
[6] = Oryctolagus cuniculus, topical, concentration 0.1 %
[7] = Oryctolagus cuniculus, topical, concentration 0.5 %

## COc1ccc2c(c1)-c1c(ccc(OC)c1OC)CC(Cc1ccccc1)N(C)CC2 (racemic) [Example 5, (±)-6-Benzyl-7-methyl-5,6;8,9-tetrahydro-1,2,12-trimethoxy-7H-dibenz(d,f)azonine]
[1]; 5 mg/kg I.V.
  average period of arrhythmia: 4.1 min
[2]
  LD50 at 168 h: ~1000 mg/kg
[3]; 4.0 × 10^-6 g/ml in the bath
  average prolongation of the refractory time: 25 ms
[4]; [5]
  inhibition in vivo at 1 %: 100%
[4]; concentration 1.0 %
  Period of Action: > 60 min

## COc1cccc(CC2Cc3ccc(OC)c(O)c3-c3cc(OC)ccc3CCN2C)c1 (single isomer, unassigned; (-)) [Example 2, (-)-6-(3'-Methoxybenzyl)-2,12-dimethoxy-1-hydroxy-7-methyl-5,6;8,9-tetrahydro-7H-dibenz(d,f)azonine]
[1]; 10 mg/kg I.V.
  average period of arrhythmia: 4.9 min
[2]
  LD50 at 168 h: 1000 mg/kg
[3]; 8.0 × 10^-6 g/ml in the bath
  average prolongation of the refractory time: 46 ms
[4]; [6]
  inhibition in vivo at 0.1 %: 78%
[4]; [7]
  inhibition in vivo at 0.5 %: 100%
[4]; [5]
  inhibition in vivo at 1 %: 100%
[4]; concentration 0.1 %
  Period of Action: 46 min
[4]; concentration 0.5 %
  Period of Action: about 52 Min.
[4]; concentration 1.0 %
  Period of Action: > 60 min

## COc1ccc2c(c1)-c1c(ccc(OC)c1O)CC(Cc1ccc(F)cc1)N(C)CC2 (single isomer, unassigned; (-)) [Example 3, (-)-6-(4'-Fluorobenzyl)-2,12-dimethoxy-1-hydroxy-7-methyl-5,6;8,9-tetrahydro-7H-dibenz(d,f)azonine]
[1]; 10 mg/kg I.V.
  average period of arrhythmia: 5.4 min
[2]
  LD50 at 168 h: 600 mg/kg
[3]; 1.6 × 10^-5 g/ml in the bath
  average prolongation of the refractory time: 29 ms
[4]; [7]
  inhibition in vivo at 0.5 %: 100%
[4]; concentration 0.5 %
  Period of Action: > 60 min

## COc1cccc(CC2Cc3ccc(OC)c(OC)c3-c3cc(OC)ccc3CCN2C)c1 (single isomer, unassigned; (-)) [Example 6, (-)-6-(3'-Methoxybenzyl)-7-methyl-5,6;8,9-tetrahydro-1,2,12-trimethoxy-7H-dibenz(d,f)azonine]
[1]; 4 mg/kg I.V.
  average period of arrhythmia: 4.6 min
[2]
  LD50 at 168 h: ~300 mg/kg
[4]; [5]
  inhibition in vivo at 1 %: 79%
[4]; Oryctolagus cuniculus, topical, concentration 2.0 %
  inhibition in vivo at 2 %: 100%
[4]; concentration 1.0 %
  Period of Action: > 60 min
[4]; concentration 2.0 %
  Period of Action: > 60 min

## COc1cccc(CC2Cc3ccc(OC)c(OC(C)=O)c3-c3cc(OC)ccc3CCN2C)c1 (single isomer, unassigned; (-)) [Example 7, (-)-1-Acetoxy-6-(3'-methoxybenzyl)-7-methyl-5,6;8,9-tetrahydro-2,12-dimethoxy-7H-dibenz(d,f)azonine]
[1]; 4 mg/kg I.V.
  average period of arrhythmia: 4.1 min
[2]
  LD50 at 168 h: 900 mg/kg
[3]; 4.0 × 10^-6 g/ml in the bath
  average prolongation of the refractory time: 18 ms
[4]; [7]
  inhibition in vivo at 0.5 %: 63%
[4]; [5]
  inhibition in vivo at 1 %: 100%
[4]; concentration 0.5 %
  Period of Action: > 60 min
[4]; concentration 1.0 %
  Period of Action: > 60 min

## CC[C@H]1[C@@H]2C[C@H]3[C@@H]4N(C)c5ccccc5[C@]45C[C@@H]([C@H]2[C@H]5O)N3[C@@H]1O [Ajmaline, ajmaline, reference compound]
[3]; 1.6 × 10^-5 g/ml in the bath
  average prolongation of the refractory time: 16 ms

## COc1ccc2c(c1)-c1c(ccc(OC)c1O)CC(Cc1ccccc1)NCC2 (stereo not drawn) [Example 9, 6-Benzyl-2,12-dimethoxy-1-hydroxy-5,6;8,9-tetrahydro-7H-dibenz(d,f)azonine]
[1]; 5 mg/kg I.V.
  average period of arrhythmia: 6.8 min
[3]; 1.6 × 10^-5 g/ml in the bath
  average prolongation of the refractory time: 27 ms

## COc1ccc(CCN(C)CCCC(C#N)(c2ccc(OC)c(OC)c2)C(C)C)cc1OC (stereo not drawn) [Verapamil, verapamil, reference compound]
[3]; 1.6 × 10^-5 g/ml in the bath
  average prolongation of the refractory time: 16 ms

## O=C1NC(=O)C(c2ccccc2)(c2ccccc2)N1 [phenytoin, reference compound]
[1]; 20 mg/kg I.V.
  average period of arrhythmia: 16.5 min
[3]; 1.6 × 10^-5 g/ml in the bath
  average prolongation of the refractory time: -6 ms

## CCCCNc1ccc(C(=O)OCCN(C)C)cc1 [tetracaine, reference compound]
[4]; [6]
  inhibition in vivo at 0.1 %: 100%
[4]; concentration 0.1 %
  Period of Action: about 44 Min.
[4]; concentration not given there
  duration of maximum activity strength: 44 min
  maximum activity strength: 100%
